Assay results from patent publication US12077503B2, “Substituted cyclic amides and their use as herbicides” (FMC CORPORATION, priority 2015, dated 2024).

Assays:
Format in all cases: in vivo
rice (Oryra sativa) = experiment: Test B flooded paddy test; details: Oryza sativa, 250 g ai/ha, Flood; 0 to 100 scale where 0 is no effect and 100 is complete control; read-out: Rice plant response rating
Outline: (§1)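 Visual ratings (0 none to 100 complete control) are relative to untreated plants, taken 13–15 d after treatment in a greenhouse. Test material went straight into floodwater standing 3 cm above the soil, kept constant, on plants at the 2-leaf stage.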

[1] = system: ducksalad (Heteranthera limosa); experiment: Test B flooded paddy test; details: Heteranthera limosa, 250 g ai/ha, Flood; 0 to 100 scale where 0 is no effect and 100 is complete control; read-out: Ducksalad plant response rating
Outline: as §1

[2] = system: barnyardgrass (Echinochloa crus-galli); experiment: Test B flooded paddy test; details: Echinochloa crus-galli, 250 g ai/ha, Flood; 0 to 100 scale where 0 is no effect and 100 is complete control; read-out: Barnyardgrass plant response rating
Outline: as §1

[3] = system: sedge, umbrella (small-flower umbrella sedge, Cyperus difformis); experiment: Test B flooded paddy test; details: Cyperus difformis, 250 g ai/ha, Flood; 0 to 100 scale where 0 is no effect and 100 is complete control; read-out: Sedge, Umbrella plant response rating
Outline: as §1

[4] = system: ryegrass, Italian (Italian ryegrass, Lolium multiflorum); experiment: Test A preemergence; details: Lolium multiflorum, pre-emergence, 240 h; for pest or weed control at 125 g/ha: 125 g ai/ha, Preemergence, visual injury rating after approximately 10 d, read-out: Ryegrass, Italian plant response rating (0 to 100 scale, 0 is no effect, 100 is complete control); for pest or weed control at 500 g/ha: 500 g ai/ha, preemergence, visual injury rating about 10 d after treatment, 0 to 100 scale (0 no effect, 100 complete control), read-out: Ryegrass, Italian plant response rating
Outline: (§2)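 Visual injury scores from 0, no effect, to 100, complete control, were assigned versus untreated controls roughly 10 d after treatment in the greenhouse. Test chemicals, formulated with surfactant in a non-phytotoxic solvent, were applied to planted seeds as a preemergence soil spray or postemergence to one- to two-leaf plants 2 to 10 cm tall, in loam–sand soil.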

[5] = system: blackgrass (Alopecurus myosuroides); experiment: Test A postemergence; details: Alopecurus myosuroides, post-emergence, 240 h, read-out: Plant response rating, Blackgrass; for pest or weed control at 125 g/ha: 125 g ai/ha, Postemergence, visual injury after approximately 10 d, 0 to 100 scale where 0 is no effect and 100 is complete control; for pest or weed control at 500 g/ha: 500 g ai/ha, postemergence, visual injury, 0 to 100 scale (0 no effect, 100 complete control), approx. 10 d
Outline: as §2

Kochia (Kochia scoparia) = experiment: Test A postemergence; details: Bassia scoparia, post-emergence, 240 h, postemergence, approx. 10 d; for pest or weed control at 125 g/ha: 125 g ai/ha, visual injury on 0 to 100 scale (0 no effect, 100 complete control), read-out: Kochia plant response rating; for pest or weed control at 500 g/ha: 500 g ai/ha, visual injury, 0 to 100 scale (0 no effect, 100 complete control), read-out: Plant response rating, Kochia
Outline: as §2

corn (Zea mays) = experiment: Test A postemergence; details: Zea mays, post-emergence, 240 h; for Corn plant response rating (crop injury, 0 = no effect, 100 = complete kill) at 125 g/ha: 125 g ai/ha, Postemergence, visual injury after approximately 10 d, 0 to 100 scale where 0 is no effect and 100 is complete control; for Corn plant response rating (crop injury, 0 = no effect, 100 = complete kill) at 500 g/ha: 500 g ai/ha, postemergence, visual injury, 0 to 100 scale (0 no effect, 100 complete control), approx. 10 d
Outline: as §2

[6] = system: wheat (Triticum aestivum); experiment: Test A postemergence; details: Triticum aestivum, post-emergence, 240 h, postemergence, approx. 10 d; for plant injury at 125 g/ha: 125 g ai/ha, visual injury on 0 to 100 scale (0 no effect, 100 complete control), read-out: Wheat plant response rating; for plant injury at 500 g/ha: 500 g ai/ha, visual injury, 0 to 100 scale (0 no effect, 100 complete control), read-out: Plant response rating, Wheat
Outline: as §2

[7] = system: Galium (catchweed bedstraw, Galium aparine); experiment: Test A postemergence; details: Galium, post-emergence, 240 h, postemergence, approx. 10 d; for pest or weed control at 125 g/ha: 125 g ai/ha, visual injury on 0 to 100 scale (0 no effect, 100 complete control), read-out: Galium plant response rating; for pest or weed control at 500 g/ha: 500 g ai/ha, visual injury, 0 to 100 scale (0 no effect, 100 complete control), read-out: Plant response rating, Galium
Outline: as §2

[8] = system: ragweed (common ragweed, Ambrosia elatior); experiment: Test A postemergence; details: Ambrosia artemisiifolia, post-emergence, 240 h, postemergence, approx. 10 d; for pest or weed control at 125 g/ha: 125 g ai/ha, visual injury on 0 to 100 scale (0 no effect, 100 complete control), read-out: Ragweed plant response rating; for pest or weed control at 500 g/ha: 500 g ai/ha, visual injury, 0 to 100 scale (0 no effect, 100 complete control), read-out: Plant response rating, Ragweed
Outline: as §2

[9] = system: pigweed (Amaranthus retroflexus); experiment: Test A postemergence; details: Amaranthus retroflexus, post-emergence, 240 h, postemergence, approx. 10 d; for pest or weed control at 125 g/ha: 125 g ai/ha, visual injury on 0 to 100 scale (0 no effect, 100 complete control), read-out: Pigweed plant response rating; for pest or weed control at 500 g/ha: 500 g ai/ha, visual injury, 0 to 100 scale (0 no effect, 100 complete control), read-out: Plant response rating, Pigweed
Outline: as §2

[10] = system: ryegrass, Italian (Italian ryegrass, Lolium multiflorum); experiment: Test A postemergence; details: Lolium multiflorum, post-emergence, 240 h, postemergence, approx. 10 d; for pest or weed control at 125 g/ha: 125 g ai/ha, visual injury on 0 to 100 scale (0 no effect, 100 complete control), read-out: Ryegrass, Italian plant response rating; for pest or weed control at 500 g/ha: 500 g ai/ha, visual injury, 0 to 100 scale (0 no effect, 100 complete control), read-out: Plant response rating, Ryegrass, Italian
Outline: as §2

[11] = system: barnyardgrass (Echinochloa crus-galli); experiment: Test A postemergence; details: Echinochloa crus-galli, post-emergence, 240 h, read-out: Plant response rating, Barnyardgrass; for pest or weed control at 125 g/ha: 125 g ai/ha, Postemergence, visual injury after approximately 10 d, 0 to 100 scale where 0 is no effect and 100 is complete control; for pest or weed control at 500 g/ha: 500 g ai/ha, postemergence, visual injury, 0 to 100 scale (0 no effect, 100 complete control), approx. 10 d
Outline: as §2

[12] = system: giant foxtail (Setaria faberii); experiment: Test A postemergence; details: Setaria faberi, post-emergence, 240 h, postemergence, approx. 10 d; for pest or weed control at 125 g/ha: 125 g ai/ha, visual injury on 0 to 100 scale (0 no effect, 100 complete control), read-out: Foxtail, Giant plant response rating; for pest or weed control at 500 g/ha: 500 g ai/ha, visual injury, 0 to 100 scale (0 no effect, 100 complete control), read-out: Plant response rating, Foxtail, Giant
Outline: as §2

O=C1NC[C@H](c2ccc3c(c2)OCO3)[C@H]1C(=O)Nc1ccc(F)c(F)c1F [Compound 1027]
40%: pest or weed control at 250 g/ha [2] | pest or weed control at 500 g/ha [5]
70%: pest or weed control at 500 g/ha [7] | pest or weed control at 125 g/ha [11]
0%: pest or weed control at 250 g/ha [3] | pest or weed control at 500 g/ha [4] | pest or weed control at 125 g/ha [5] | pest or weed control at 125 g/ha (Kochia (Kochia scoparia)) | Corn plant response rating (crop injury, 0 = no effect, 100 = complete kill) at 125 g/ha (corn (Zea mays)) | Corn plant response rating (crop injury, 0 = no effect, 100 = complete kill) at 500 g/ha (corn (Zea mays)) | plant injury at 125 g/ha [6] | plant injury at 500 g/ha [6] | pest or weed control at 125 g/ha [8] | pest or weed control at 500 g/ha [8] | pest or weed control at 125 g/ha [9] | pest or weed control at 500 g/ha [9] | pest or weed control at 125 g/ha [10]
30%: pest or weed control at 250 g/ha (rice (Oryra sativa)) | pest or weed control at 125 g/ha [4] | pest or weed control at 500 g/ha (Kochia (Kochia scoparia)) | pest or weed control at 500 g/ha [10]
90%: pest or weed control at 500 g/ha [11]
20%: pest or weed control at 125 g/ha [12]
60%: pest or weed control at 500 g/ha [12]
50%: pest or weed control at 125 g/ha [7]
100%: pest or weed control at 250 g/ha [1]

CN1CC[C@H](c2ccccc2)[C@@H](C(=O)Nc2ccccc2F)C1=O [Compound 1032]
0%: pest or weed control at 250 g/ha (rice (Oryra sativa)) | pest or weed control at 250 g/ha [2] | pest or weed control at 250 g/ha [3] | pest or weed control at 125 g/ha [4] | pest or weed control at 500 g/ha [4] | pest or weed control at 125 g/ha [5] | pest or weed control at 500 g/ha [5] | pest or weed control at 125 g/ha (Kochia (Kochia scoparia)) | pest or weed control at 500 g/ha (Kochia (Kochia scoparia)) | Corn plant response rating (crop injury, 0 = no effect, 100 = complete kill) at 125 g/ha (corn (Zea mays)) | Corn plant response rating (crop injury, 0 = no effect, 100 = complete kill) at 500 g/ha (corn (Zea mays)) | plant injury at 125 g/ha [6] | plant injury at 500 g/ha [6] | pest or weed control at 125 g/ha [7] | pest or weed control at 500 g/ha [7] | pest or weed control at 125 g/ha [8] | pest or weed control at 500 g/ha [8] | pest or weed control at 125 g/ha [9] | pest or weed control at 500 g/ha [9] | pest or weed control at 125 g/ha [10] | pest or weed control at 500 g/ha [10] | pest or weed control at 125 g/ha [11] | pest or weed control at 500 g/ha [11] | pest or weed control at 125 g/ha [12] | pest or weed control at 500 g/ha [12]
20%: pest or weed control at 250 g/ha [1]

Cc1ccc([C@H]2CNC(=O)[C@@H]2C(=O)Nc2cccc(F)c2F)cc1C [Compound 1034]
60%: pest or weed control at 250 g/ha [2] | pest or weed control at 500 g/ha [4] | pest or weed control at 500 g/ha [7] | pest or weed control at 500 g/ha [10]
10%: Corn plant response rating (crop injury, 0 = no effect, 100 = complete kill) at 125 g/ha (corn (Zea mays)) | pest or weed control at 125 g/ha [8]
30%: pest or weed control at 500 g/ha [5] | pest or weed control at 500 g/ha (Kochia (Kochia scoparia))
100%: pest or weed control at 250 g/ha [1]
80%: pest or weed control at 500 g/ha [12]
40%: pest or weed control at 125 g/ha [7] | pest or weed control at 500 g/ha [8]
20%: pest or weed control at 125 g/ha [4] | pest or weed control at 125 g/ha [5] | pest or weed control at 125 g/ha (Kochia (Kochia scoparia)) | pest or weed control at 125 g/ha [12]
90%: pest or weed control at 125 g/ha [11] | pest or weed control at 500 g/ha [11]
50%: Corn plant response rating (crop injury, 0 = no effect, 100 = complete kill) at 500 g/ha (corn (Zea mays)) | plant injury at 500 g/ha [6]
0%: pest or weed control at 250 g/ha (rice (Oryra sativa)) | pest or weed control at 250 g/ha [3] | plant injury at 125 g/ha [6] | pest or weed control at 125 g/ha [9] | pest or weed control at 500 g/ha [9] | pest or weed control at 125 g/ha [10]
